Source: patent US20240207265A1, “TREATMENT OF CNS DISEASES WITH sGC STIMULATORS” (Tisento Therapeutics Inc., priority 2021, published 2024)
pEC50: −log10 of the molar value. Values belong to the compound of their own block, whether it stands above or below them.

What was measured:
sGC enzyme = experiment: cGMP GloSensor cell-based assay, 384-well format (HEK293); parameters: species or system human; details: HEK293 GloSensor 40F cGMP cells, 10 μM DETA-NONOate, geometrical mean; read-out: Glo EC50
Description: Human embryonic kidney cells (HEK293) cells expressing GloSensor™ 40F cGMP (Part No: CS182801, Promega) were used to evaluate the activity of test compounds. The luminescent biosensors (engineered luciferase) that were incorporated into these cells detect cGMP formed by the compounds stimulating the sGC enzyme and emit luminescence.
cGMP GloSensor cells were maintained in Dulbecco's Modification of Eagle's Medium (DMEM) supplemented with fetal bovine serum (FBS, 10% final) and hygromycine (200 ug/ml). The day before assay, cells were plated in DMEM with 10% FBS in a 50 μL volume at a density of 1.5×10^4 cells/well in a poly-D-lysine coated 384-well flat white-bottom plate (Corning Cat No 35661). Cells were incubated overnight at 37° C. in a humidified chamber with 5% CO2. The next day, medium was removed and cells were replaced with 40 ul/well of GloSensor™, 2 mM (Promega Cat No E1291). Cells were treated for 90 minutes at 25° C. to allow the substrate to equilibrate in the cells. Test compounds and Diethylenetriamine NONOate (DETA-NONOate) was diluted to 3 mM (20×) in serum-free CO2 independent medium and serially diluted at 4× dilutions to create 5× dose curve from which 10 ul was added to the wells (x μM concentration for test compound solution and 10 μM concentration for DETA-NONOate solution; wherein x is one of the following final concentrations: 30 μM, 7.5 μM, 1.9 μM, 469 nM, 117 nM, 29.3 nM, 7.3 nM, 1.83 nM, 0.46 nM, 0.11 nM, 0.03 nM) For the kinetics studies, luminescense was measured right away for 0.2 sec per well with Envision (Perkin Elmer). For endpoint SAR screening, data were collected after 55 min incubation at room temperature.
Concentration response data were analyzed using a 4-parameter fit (log (agonist) vs. response-variable slope). The EC50 was interpolated from the curve fit and is defined as the concentration at which the compound elicits 50% of its maximal response. When the experiment was carried out multiple times for a given compound, the geometrical mean of all experiments is reported.

normotensive rats = experiment: Blood pressure effects in normotensive rats after acute oral dose; type: in vivo, rat; details: for Peak ΔVMAP (mm Hg): sodium salt in Milli-Q water, vehicle-adjusted MAP; for Time at Peak: time of peak ΔVMAP
Description: Male, normotensive Sprague Dawley rats were purchased from Charles River Laboratories. These rats have indwelling femoral artery catheters installed. Animals were harnessed to a tether system and attached to pressure transducers to monitor cardiovascular (CV) parameters, specifically mean arterial pressure (MAP) and heart rate (HR). Animals were acclimated to the system overnight and baseline CV parameters collected. […] A blood sample was collected from each animal through the catheter line at pre-dose and 2 hours post-dose for compound concentration quantification. Hemodynamic measures were recorded for ten hours post-dose. Fifty-four male rats were used for these studies and they were ordered to be received at a body weight range of 250-275 grams. They were single housed under controlled conditions of temperature (21±1° C.), relative humidity (36±1%) and placed in a 12-hr light-dark cycle (lights on at 6:00 AM and off at 6:00 PM) room at SmartLabs vivarium (21 Erie Street, Cambridge, MA) under protocol MIL-110. Animals were allowed ad libitum access to chow (LabDiet Prolab Isopro RMH 3000, St. Louis, MO) and water. Two sets of studies were carried out. […] […] Formulations prepared were thawed less than 4 hours before dosing and stored at room temperature or were made less than 2 hours before dosing and stored at room temperature.
This study utilized ADInstruments LabChart (v8) to collect hemodynamic data from conscious, freely moving rats tethered to a blood pressure transducer (Harvard Apparatus cat #APT300). Following an overnight acclimation to the tether and pressure transducer, animals were dosed following a 1-hr baseline recording period. Animals were administered a single oral (P.O.) dose of the sodium salt form of Compound I-14 or vehicle at a dose volume of 10 mL/kg. Data collection was continued for 10 hours post-dose.
ADInstruments LabChart (v8) was used to monitor and export hemodynamic data. Blood pressure and heart rate were continuously monitored, and data were collected at 1000 data points per second then averaged into 10-minute bins for analysis. Change from baseline MAP (ΔBMAP) and HR (ΔBHR) were calculated using the pre-dose baseline averaged over the 1-hr period prior to dosing using Microsoft Excel for Microsoft 365. This 10-minute bin dataset was used to determine peak ΔVMAP, time peak ΔVMAP, peak ΔVHR and time of peak ΔVHR. The dataset was further consolidated into 1-hr bins for the MAP and HR figures and the analysis of ΔBMAP, ΔBMAP, and ΔBHR. The definitions of these terms/abbreviations are summarized below:
Statistical analyses were performed in Graphpad Prism (v8). Significance, as compared to vehicle-treated rats, for ΔBMAP and ΔBHR data was determined by 2-way repeated measures ANOVA followed by a Dunnett's multiple comparisons test, if there was a missing data point, a mixed-effect analysis was utilized. Vehicle-adjusted MAP (ΔVMAP) was calculated by subtracting ΔBMAP of the vehicle group from the ΔBMAP of each dose group at each timepoint. Vehicle-adjusted HR (ΔVHR) was calculated in a similar manner to ΔVMAP.
Analogous studies to the ones described above were carried out with Compound I-20. […] A blood sample was collected from each animal through the catheter line at pre-dose and 2 hours post-dose for compound concentration quantification. Hemodynamic measures were recorded for ten hours post-dose.

Compound: Oc1nc(-c2cn3ccnc3c(Cc3cccc(F)c3F)n2)ncc1F [Compound I-4, 2-(8-(2,3-Difluorobenzyl)imidazo[1,2-a]pyrazin-6-yl)-5-fluoropyrimidin-4-ol]
- pEC50 (sGC enzyme): 6.00 to 7.00
- maximal reduction of MAP from baseline (ΔBMAP) (normotensive rats; formulated in PEG400, 10 mg/kg): 20 mm Hg
- time after dosing of maximal/peak ΔBMAP (normotensive rats; formulated in PEG400, 10 mg/kg): 50 min

Compound: Cc1cc(F)c(Cc2nc(-c3ncc(F)c(O)n3)cn3ccnc23)cc1F [Compound I-14, 5-fluoro-2-(8-(2,5-difluoro-4-methylbenzyl)imidazo[1,2-a]pyrazin-6-yl)pyrimidin-4-ol]
- pEC50 (sGC enzyme): ≥ 7.00
- Peak ΔVMAP (mm Hg) (normotensive rats; 1 mg/kg single oral dose): −6.2 mm Hg
- Time at Peak (normotensive rats; 1 mg/kg single oral dose): 90 min
- Peak ΔVMAP (mm Hg) (normotensive rats; 3 mg/kg single oral dose): −10.1 mm Hg
- Time at Peak (normotensive rats; 3 mg/kg single oral dose): 70 min
- Peak ΔVMAP (mm Hg) (normotensive rats; 10 mg/kg single oral dose): −22.3 mm Hg
- Time at Peak (normotensive rats; 10 mg/kg single oral dose): 30 min
- Peak ΔVMAP (mm Hg) (normotensive rats; 30 mg/kg single oral dose): −24.4 mm Hg
- Time at Peak (normotensive rats; 30 mg/kg single oral dose): 30 min
- effect on MAP from baseline and as adjusted from vehicle (normotensive rats; single oral dose 3, 10, and 30 mg/kg): lowered MAP from baseline and as adjusted from vehicle
- no effect dose on ΔBMAP (normotensive rats; single oral dose, main effect analysis, simple effects analysis and AOC): 1 mg/kg

Compound: Oc1nc(-c2cn3ccnc3c(Cc3cc(F)ccc3F)n2)ncc1Cl [Compound I-16, 5-chloro-2-(8-(2,5-difluorobenzyl)imidazo[1,2-a]pyrazin-6-yl)pyrimidin-4-ol]
- pEC50 (sGC enzyme): ≥ 7.00

Compound: Cc1cc(F)c(Cc2nc(-c3ncc(F)c(O)n3)cn3c(F)cnc23)cc1F [Compound I-18]
- pEC50 (sGC enzyme): ≥ 7.00

Compound: Cc1cc(F)c(Cc2nc(-c3ncc(F)c(O)n3)cn3ncnc23)cc1F [Compound I-19, 5-Fluoro-2-(8-(2,5-difluoro-4-methylbenzyl)-[1,2,4]triazolo[1,5-a]pyrazin-6-yl)pyrimidin-4-ol]
- pEC50 (sGC enzyme): 6.00 to 7.00

Compound: Oc1nc(-c2cn3ccnc3c(Cc3ccccc3F)n2)ncc1F [Compound I-21]
- pEC50 (sGC enzyme): 6.00 to 7.00

Compound: Oc1nc(-c2cn3ncnc3c(Cc3ccccc3F)n2)ncc1F [Compound I-23]
- pEC50 (sGC enzyme): 6.00 to 7.00

Now from value to compound, other results behind:

- pEC50 (sGC enzyme): 6.00 to 7.00
Compound: Oc1nc(-c2cn3ccnc3c(Cc3ccccc3)n2)ncc1F [Compound I-2, 2-(8-Benzylimidazo[1,2-a]pyrazin-6-yl)-5-fluoropyrimidin-4-ol]

- pEC50 (sGC enzyme): ≥ 7.00
Compound: Oc1nc(-c2cn3c(F)cnc3c(Cc3cc(F)ccc3F)n2)ncc1F [Compound I-5]

- pEC50 (sGC enzyme): 6.00 to 7.00
Compound: Cc1cc(F)c(Cc2nc(-c3nccc(O)n3)cn3ccnc23)cc1F [Compound I-15, 2-(8-(2,5-difluoro-4-methylbenzyl)imidazo[1,2-a]pyrazin-6-yl)pyrimidin-4-ol]

- pEC50 (sGC enzyme): ≥ 7.00
Compound: Oc1nc(-c2cn3ccnc3c(Cc3cc(F)ccc3F)n2)ncc1F [Compound I-20, 5-fluoro-2-(8-(2,5-difluorobenzyl)imidazo[1,2-a]pyrazin-6-yl)pyrimidin-4-ol]
- Peak ΔVMAP (mm Hg) (normotensive rats; 1 mg/kg single oral dose): −14.3 mm Hg
- Time at Peak (normotensive rats; 1 mg/kg single oral dose): 20 min
- Peak ΔVMAP (mm Hg) (normotensive rats; 3 mg/kg single oral dose): −19.2 mm Hg
- Time at Peak (normotensive rats; 3 mg/kg single oral dose): 20 min
- Peak ΔVMAP (mm Hg) (normotensive rats; 10 mg/kg single oral dose): −20.2 mm Hg
- Time at Peak (normotensive rats; 10 mg/kg single oral dose): 30 min
- Peak ΔVMAP (mm Hg) (normotensive rats; 30 mg/kg single oral dose): −38.1 mm Hg
- Time at Peak (normotensive rats; 30 mg/kg single oral dose): 30 min
- peak ΔBMAP (normotensive rats; formulated in PEG400, 10 mg/kg): −26 mm Hg
- time after dosing of maximal/peak ΔBMAP (normotensive rats; formulated in PEG400, 10 mg/kg): 42 min
